Data reported in patent EP3130589A1, “HETEROCYCLIC AZA COMPOUNDS” (Grünenthal GmbH, priority 2015, dated 2017).

Molecular target: T1, TRPV1 human (Homo sapiens, UniProt Q8NER1)
T1 construct: expressed in transfected cells; host or cells: CHO K1 cells
Assay: Functional testing on the vanilloid receptor 1 (VR1/TRPV1): FLIPR Ca2+ influx assay, inhibition of capsaicin (CAP) stimulation
Format: cell-based
Settings: for Ki: functional (f) FLIPR assay, capsaicin (CAP) 100 nM, Ki from IC50 by Cheng-Prusoff equation; for TRPV1 human (f) CAP, result in words: ne = did not show any effect in this assay, pAG = partial agonist; for inhibition at 5 µM: @ 5 µM compound
Procedure: Furthermore, preference may be given to compounds according to the invention that cause a 50 per cent displacement of capsaicin, which is present at a concentration of 100 nM, in a FLIPR assay with CHO K1 cells which were transfected with the human VR1 gene at a concentration of less than 6,000 nM, preferably less than 5,000 nM, more preferably less that 3,000 nM or less than 1,000 nM and particularly preferably less than 300 nM, most particularly preferably less than 100 nM, even more preferably less than 75 nM, additionally preferably less than 50 nM, most preferably less than 10 nM.
In the process, the Ca^2+ influx is quantified in the FLIPR assay with the aid of a Ca^2+-sensitive dye (type Fluo-4, Molecular Probes Europe BV, Leiden, the Netherlands) in a fluorescent imaging plate reader (FLIPR, Molecular Devices, Sunnyvale, USA), as described hereinafter.
Functional testing carried out on the vanilloid receptor 1 (VRI/TRPV1 receptor) […]
The number of cells in the suspension is set to 3 x 10^5 per mL and 150 µL of this suspension are in each case introduced into a recess in the cell culture plates coated as described hereinbefore. In the incubator the plates are left for two to three days at 37°C, 5 vol.-% of CO2 and 95 % relative humidity. Subsequently, the cells are loaded with 2 µM of Fluo-4 and 0.01 vol.-% of Pluronic F127 (Molecular Probes Europe BV, Leiden, the Netherlands) in HBSS buffer for 30 min at 37°C, washed 3 times with HBSS buffer and after further incubation for 15 min at RT used for Ca^2+ measurement in a FLIPR assay. The Ca^2+-dependent fluorescence is in this case measured before and after the addition of substances (λex = 488 nm, λem = 540 nm). Quantification is carried out by measuring the highest fluorescence intensity (FC, fluorescence counts) over time.
The FLIPR protocol consists of 2 substance additions. First the compounds to be tested (10 µM) are pipetted onto the cells and the Ca^2+ influx is compared with the control (capsaicin 10 µM). This provides the result in % activation based on the Ca^2+ signal after the addition of 10 µM of capsaicin (CP). After 5 min incubation, 100 nM of capsaicin are applied and the Ca^2+ influx is also determined. Desensitising agonists and antagonists lead to suppression of the Ca^2+ influx. The % inhibition is calculated compared to the maximum achievable inhibition with 10 µM of capsazepine.
Triple analyses (n=3) are carried out and repeated in at least 3 independent experiments (N=4). Starting from the percentage displacement caused by different concentrations of the compounds to be tested of general formula I, IC50 inhibitory concentrations which cause a 50% displacement of capsaicin were calculated.
Ki values for the test substances were obtained by conversion by means of the Cheng-Prusoff equation (Cheng, Prusoff; Biochem. Pharmacol. 22, 3099-3108, 1973).

[1] = capsaicin (CAP) stimulus, relative to maximum achievable inhibition with 10 µM capsazepine, read-out: TRPV1 human (f) CAP, inhibition (in %)

T1 sequence (Q8NER1 whole entry): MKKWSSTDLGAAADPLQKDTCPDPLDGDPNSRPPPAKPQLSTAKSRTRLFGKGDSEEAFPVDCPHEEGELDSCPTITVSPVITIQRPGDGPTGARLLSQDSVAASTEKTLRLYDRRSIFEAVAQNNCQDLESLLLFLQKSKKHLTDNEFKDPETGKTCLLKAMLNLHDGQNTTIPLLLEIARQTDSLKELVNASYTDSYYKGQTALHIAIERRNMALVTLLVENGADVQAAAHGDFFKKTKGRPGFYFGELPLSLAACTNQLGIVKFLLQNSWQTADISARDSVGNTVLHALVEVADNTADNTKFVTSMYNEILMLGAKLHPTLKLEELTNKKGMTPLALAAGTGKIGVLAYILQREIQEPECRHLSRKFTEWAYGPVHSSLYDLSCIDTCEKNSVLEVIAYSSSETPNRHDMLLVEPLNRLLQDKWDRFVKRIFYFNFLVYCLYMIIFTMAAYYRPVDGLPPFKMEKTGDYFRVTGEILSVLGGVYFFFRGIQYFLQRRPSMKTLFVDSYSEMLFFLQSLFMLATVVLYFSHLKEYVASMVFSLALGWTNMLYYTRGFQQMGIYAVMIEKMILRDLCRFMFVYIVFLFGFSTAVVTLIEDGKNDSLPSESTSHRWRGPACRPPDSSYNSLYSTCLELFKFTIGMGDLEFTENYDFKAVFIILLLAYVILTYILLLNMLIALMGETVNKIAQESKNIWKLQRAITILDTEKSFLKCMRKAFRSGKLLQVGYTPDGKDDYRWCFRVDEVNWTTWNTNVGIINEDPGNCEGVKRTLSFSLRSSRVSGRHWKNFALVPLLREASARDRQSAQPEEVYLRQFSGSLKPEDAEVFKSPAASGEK

| SMILES | Ki | further results |
| --- | --- | --- |
| CC(C(=O)NCc1ccc(C(F)(F)F)nc1N1CCOCC1)c1cn(C)c2ccc(O)cc12 (stereo not drawn) [example compound 10, 2-(5-hydroxy-1-methyl-1H-indol-3-yl)-N-((2-morpholino-6-(trifluoromethyl)pyridin-3-yl)methyl)propanamide] | 29.3 nM | – |
| COc1ccc2c(c1)c(CC(=O)NCc1ccc(C(F)(F)F)nc1N1CCC(C)CC1)cn2C [example compound 2, 2-(5-methoxy-1-methyl-1H-indol-3-yl)-N-((2-(4-methylpiperidin-1-yl)-6-(trifluoromethyl)pyridin-3-yl)methyl)acetamide] | 29.6 nM | – |
| Cn1cc(CC(=O)NCc2ccc(C(F)(F)F)nc2N2CCOCC2)c2cc(O)ccc21 [example compound 20, 2-(5-hydroxy-1-methyl-1H-indol-3-yl)-N-((2-morpholino-6-(trifluoromethyl)pyridin-3-yl)methyl)acetamide] | 16.5 nM | – |
| CC1CCN(c2nc(C(F)(F)F)ccc2CNC(=O)Nc2nc3ccccc3[nH]2)CC1 [example compound 26, 1-(1H-benzo[d]imidazol-2-yl)-3-((2-(4-methylpiperidin-1-yl)-6-(trifluoromethyl)pyridin-3-yl)methyl)urea] | – | TRPV1 human (f) CAP, result in words: ne |
| CCNc1nc(C(F)(F)F)ccc1CNC(=O)C(C)c1cn(C)c2ccc(OC)cc12 (stereo not drawn) [example compound 16, N-((2-(ethylamino)-6-(trifluoromethyl)pyridin-3-yl)methyl)-2-(5-methoxy-1-methyl-1H-indol-3-yl)propanamide] | – | TRPV1 human (f) CAP, result in words: ne |
| CCCCNc1nc(C(F)(F)F)ccc1CNC(=O)C(C)c1cn(C)c2ccc(OC)cc12 (stereo not drawn) [example compound 19, N-((2-(butylamino)-6-(trifluoromethyl)pyridin-3-yl)methyl)-2-(5-methoxy-1-methyl-1H-indol-3-yl)propanamide] | 76.4 nM | – |
| CC(C(=O)NCc1ccc(C(F)(F)F)nc1CC1CCCCC1)c1cn(C)c2ccccc12 (stereo not drawn) [example compound 22, N-((2-(cyclohexylmethyl)-6-(trifluoromethyl)pyridin-3-yl)methyl)-2-(1-methyl-1H-indol-3-yl)propanamide] | 35.9 nM | – |
| CC1CCN(c2nc(C(F)(F)F)ccc2CNC(=O)Nc2nc3ccccc3s2)CC1 [example compound 25, 1-(benzo[d]thiazol-2-yl)-3-((2-(4-methylpiperidin-1-yl)-6-(trifluoromethyl)pyridin-3-yl)methyl)urea] | 84.9 nM | – |
| CCNc1nc(C(F)(F)F)ccc1CNC(=O)C(C)c1cn(C)c2ccc(O)cc12 (stereo not drawn) [example compound 4, N-((2-(ethylamino)-6-(trifluoromethyl)pyridin-3-yl)methyl)-2-(5-hydroxy-1-methyl-1H-indol-3-yl)propanamide] | 44.2 nM | – |
| CC1CCN(c2nc(C(F)(F)F)ccc2CNC(=O)Nc2nc3c(Cl)cccc3s2)CC1 [example compound 23, 1-(4-chlorobenzo[d]thiazol-2-yl)-3-((2-(4-methylpiperidin-1-yl)-6-(trifluoromethyl)pyridin-3-yl)methyl)urea] | – | TRPV1 human (f) CAP, result in words: ne |
| CCNc1nc(C(F)(F)F)ccc1CNC(=O)Cc1cn(C)c2ccc(OC)cc12 [example compound 17, N-((2-(ethylamino)-6-(trifluoromethyl)pyridin-3-yl)methyl)-2-(5-methoxy-1-methyl-1H-indol-3-yl)acetamide] | – | inhibition at 1 µM (@ 1 µM compound, capsaicin (CAP) stimulus, relative to maximum achievable inhibition with 10 µM capsazepine, read-out: TRPV1 human (f) CAP, inhibition (in %)): 0%; inhibition at 5 µM [1]: 35% |
| CC(C(=O)NCc1ccc(C(F)(F)F)nc1C1CCOCC1)c1cn(C)c2ccc(O)cc12 (stereo not drawn) [example compound 9, 2-(5-hydroxy-1-methyl-1H-indol-3-yl)-N-((2-(tetrahydro-2H-pyran-4-yl)-6-(trifluoromethyl)pyridin-3-yl)methyl)propanamide] | 45.7 nM | – |
| CC1CCN(c2nc(C(F)(F)F)ccc2CNC(=O)Nc2nc3c([N+](=O)[O-])cccc3s2)CC1 [example compound 24, 1-((2-(4-methylpiperidin-1-yl)-6-(trifluoromethyl)pyridin-3-yl)methyl)-3-(4-nitrobenzo[d]thiazol-2-yl)urea] | 31.2 nM | TRPV1 human (f) CAP, result in words: pAG |
| CC1CCN(c2nc(C(F)(F)F)ccc2CNC(=O)C(C)c2cn(C)c3ccccc23)CC1 (stereo not drawn) [example compound 14, 2-(1-methyl-1H-indol-3-yl)-N-((2-(4-methylpiperidin-1-yl)-6-(trifluoromethyl)pyridin-3-yl)methyl)propanamide] | 53 nM | – |
| COCCCc1nc(C(F)(F)F)ccc1CNC(=O)C(C)c1cn(C)c2ccc(O)cc12 (stereo not drawn) [example compound 12, 2-(5-hydroxy-1-methyl-1H-indol-3-yl)-N-((2-(3-methoxypropyl)-6-(trifluoromethyl)pyridin-3-yl)methyl)propanamide] | 81 nM | – |
| CC(C(=O)NCc1ccc(C(F)(F)F)nc1OC1CCOCC1)c1cn(C)c2ccc(O)cc12 (stereo not drawn) [example compound 7, 2-(5-hydroxy-1-methyl-1H-indol-3-yl)-N-((2-((tetrahydro-2H-pyran-4-yl)oxy)-6-(trifluoromethyl)pyridin-3-yl)methyl)propanamide] | 29.1 nM | – |
| COCCOCc1nc(C(F)(F)F)ccc1CNC(=O)C(C)c1cn(C)c2ccc(O)cc12 (stereo not drawn) [example compound 15, 2-(5-hydroxy-1-methyl-1H-indol-3-yl)-N-((2-((2-methoxyethoxy)methyl)-6-(trifluoromethyl)pyridin-3-yl)methyl)propanamide] | – | inhibition at 5 µM [1]: 15% |

Now from value to molecule, other results behind:

| Ki | SMILES | further results |
| --- | --- | --- |
| 0.8 nM | CC1CCN(c2nc(C(F)(F)F)ccc2CNC(=O)C(C)c2cn(C)c3ccc(O)cc23)CC1 (stereo not drawn) [example compound 1, 2-(5-hydroxy-1-methyl-1H-indol-3-yl)-N-((2-(4-methylpiperidin-1-yl)-6-(trifluoromethyl)pyridin-3-yl)methyl)propanamide] | – |
| 1.4 nM | Cc1cccc(-c2nc(C(F)(F)F)ccc2CNC(=O)C(C)c2cn(C)c3ccc(O)cc23)c1 (stereo not drawn) [example compound 8, 2-(5-hydroxy-1-methyl-1H-indol-3-yl)-N-((2-(m-tolyl)-6-(trifluoromethyl)pyridin-3-yl)methyl)propanamide] | – |
| 8.2 nM | CCNc1nc(C(F)(F)F)ccc1CNC(=O)Cc1cn(C)c2ccc(O)cc12 [example compound 18, N-((2-(ethylamino)-6-(trifluoromethyl)pyridin-3-yl)methyl)-2-(5-hydroxy-1-methyl-1H-indol-3-yl)acetamide] | – |
| 16.2 nM | CCCCNc1nc(C(F)(F)F)ccc1CNC(=O)C(C)c1cn(C)c2ccc(O)cc12 (stereo not drawn) [example compound 6, N-((2-(butylamino)-6-(trifluoromethyl)pyridin-3-yl)methyl)-2-(5-hydroxy-1-methyl-1H-indol-3-yl)propanamide] | – |
| 3.9 nM | CC(C(=O)NCc1ccc(C(F)(F)F)nc1N1CCCCC1)c1cn(C)c2ccc(O)cc12 (stereo not drawn) [example compound 13, 2-(5-hydroxy-1-methyl-1H-indol-3-yl)-N-((2-(piperidin-1-yl)-6-(trifluoromethyl)pyridin-3-yl)methyl)propanamide] | – |
| 5 nM | CC(C(=O)NCc1ccc(C(F)(F)F)nc1N1CCCC1)c1cn(C)c2ccc(O)cc12 (stereo not drawn) [example compound 5, 2-(5-hydroxy-1-methyl-1H-indol-3-yl)-N-((2-(pyrrolidin-1-yl)-6-(trifluoromethyl)pyridin-3-yl)methyl)propanamide] | – |
| 8 nM | Cn1cc(CC(=O)NCc2ccc(C(F)(F)F)nc2C2CCCC2)c2cc(O)ccc21 [example compound 21, N-((2-cyclopentyl-6-(trifluoromethyl)pyridin-3-yl)methyl)-2-(5-hydroxy-1-methyl-1H-indol-3-yl)acetamide] | – |
| 4.8 nM | CC(C(=O)NCc1ccc(C(F)(F)F)nc1C1CCCC1)c1cn(C)c2ccc(O)cc12 (stereo not drawn) [example compound 3, N-((2-cyclopentyl-6-(trifluoromethyl)pyridin-3-yl)methyl)-2-(5-hydroxy-1-methyl-1H-indol-3-yl)propanamide] | – |
